Tested on: human abdominal skin
Assay: In vitro human skin permeation and skin disposition, flow-through diffusion cells (Examples 2, 2A, 2B)
Assay type: in vitro ADME
Settings: for Flux enhancement: total cannabidiol versus cannabidiol
In short: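 Dermatomed (~200 μm) frozen human abdominal skin was mounted in flow-through cells at 32° C (0.95 cm^2), stratum corneum to donor. Donors were 0.10 mL 45:4:1 PG:H2O:IPM solution or 50 μL gel; receiver was 40% PEG 400 (HEPES-Hanks pH 7.4 or aqueous) with gentamicin at 0.8 mL/h. Samples were taken every 3 h for 24-42 h; skin accumulation was expressed as μmol/g wet tissue.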

[1] = Table 19, gel formulation, 40% aqueous PEG 400 receiver fluid, as applied compound (CBD or intact prodrug)
[2] = Table 19, gel formulation, 40% aqueous PEG 400 receiver fluid, mono-prodrug (ALL00150) from applied di-prodrug
[3] = Table 19, gel formulation, 40% aqueous PEG 400 receiver fluid, prodrug applied, as total cannabidiol equivalents
[4] = Table 16, 90:8:2 PG:H2O:IPM donor solution, 60/40 Hanks'/PEG 400 receiver fluid, as applied compound (CBD or intact prodrug)
[5] = Table 17, 90:8:2 PG:H2O:IPM donor solution, 40% aqueous PEG 400 receiver fluid, as applied compound (CBD or intact prodrug)
[6] = Table 18, 90:8:2 PG:H2O:IPM donor solution, 40% aqueous PEG 400 receiver fluid, as applied compound (CBD or intact prodrug)
[7] = Table 21, gel formulation, 40% aqueous PEG 400 receiver fluid, as applied compound (CBD or intact prodrug)
[8] = Table 23, gel formulation, 40% aqueous PEG 400 receiver fluid, as applied compound (CBD or intact prodrug)
[9] = Table 18, 90:8:2 PG:H2O:IPM donor solution, 40% aqueous PEG 400 receiver fluid, CBD from applied prodrug
[10] = Table 18, 90:8:2 PG:H2O:IPM donor solution, 40% aqueous PEG 400 receiver fluid, mono-prodrug from applied di-prodrug
[11] = Table 18, 90:8:2 PG:H2O:IPM donor solution, 40% aqueous PEG 400 receiver fluid, prodrug applied, as total cannabidiol equivalents

C=C(C)[C@@H]1CCC(C)=C[C@H]1c1c(OC(=O)CCN(C)C)cc(CCCCC)cc1OC(=O)CCN(C)C [ALL00101, CBD bis(3-(dimethylamino)propionate)]
24 h skin conc (Table 19, gel formulation, 40% aqueous PEG 400 receiver fluid, CBD from applied prodrug): 13.2 ± 10.4 µmol/g | 24 h skin conc [1]: 0.8 ± 0.6 µmol/g | 24 h cumulative amt [2]: 8.4 ± 1.3 nmol | 24 h skin conc [2]: 34.7 ± 27.7 µmol/g | Flux [2]: 0.4 ± 0.03 nmol/cm^2/h | Lag time [2]: 2.9 ± 1.9 h | 24 h cumulative amt [3]: 8.4 ± 1.3 nmol | 24 h skin conc [3]: 48.7 ± 38.6 µmol/g | Flux [3]: 0.4 ± 0.03 nmol/cm^2/h | Lag time [3]: 2.9 ± 1.9 h | Flux enhancement (Table 19, gel formulation, 40% aqueous PEG 400 receiver fluid): 0.52 | detected in the skin as (in gel formulation): trace small amounts of intact prodrug but mostly as mono-substituted prodrug, ALL00150, and cannabidiol | flux compared to cannabidiol (in gel formulation): did not increase the flux | lag time compared to cannabidiol (in gel formulation): decreased | permeated through the skin as (in gel formulation): mono-substituted prodrug (ALL00150) only | total skin concentrations compared to cannabidiol (in gel formulation): higher

C=C(C)[C@@H]1CCC(C)=C[C@H]1c1c(O)cc(CCCCC)cc1O [cannabidiol, reference compound]
42 h cumulative amt [4]: 154.4 ± 39.5 nmol | 42 h skin conc [4]: 19.0 ± 12.8 µmol/g | Flux [4]: 6.5 ± 0.7 nmol/cm^2/h | 30 h cumulative amt [5]: 51.6 ± 9.1 nmol | 30 h skin conc [5]: 10.5 ± 6.5 µmol/g | Flux [5]: 3.9 ± 0.2 nmol/cm^2/h | 30 h cumulative amt [6]: 148.6 ± 54.0 nmol | 30 h skin conc [6]: 21.2 ± 4.8 µmol/g | Flux [6]: 8.2 ± 2.6 nmol/cm^2/h | 24 h cumulative amt [1]: 12.3 ± 8.1 nmol | 24 h skin conc [1]: 9.0 ± 2.2 µmol/g | Flux [1]: 0.8 ± 0.4 nmol/cm^2/h | Lag time [1]: 8.5 ± 2.1 h | 24 h cumulative amt [7]: 6.5 ± 3.8 nmol | 24 h skin conc [7]: 15.6 ± 4.2 µmol/g | Flux [7]: 0.4 ± 0.2 nmol/cm^2/h | Lag time [7]: 5.3 ± 1.7 h | 24 h skin conc (Table 22, anhydrous gel formulation, 40% aqueous PEG 400 receiver fluid, as applied compound (CBD or intact prodrug)): 3.3 ± 1.3 µmol/g | 24 h cumulative amt [8]: 3.0 nmol | 24 h skin conc [8]: 27.7 ± 24.6 µmol/g | Flux [8]: 0.29 nmol/cm^2/h | Lag time [8]: 12.8 h | concentrations in the skin, anhydrous gel formulation compared to the ethanol based gel formulation (anhydrous gel versus ethanol based gel): much lower

C=C(C)C1CCC(C)=CC1c1c(OC(=O)CN(C)C)cc(CCCCC)cc1OC(=O)CN(C)C (stereo not drawn) [ALL00105, CBD bis(N,N-dimethylglycinate)]
30 h cumulative amt [9]: 6.9 ± 0.0 nmol | 30 h skin conc [9]: 30.0 ± 0.0 µmol/g | Flux [9]: 0.6 ± 0.0 nmol/cm^2/h | Lag time [9]: 18.6 ± 0.0 h | 30 h cumulative amt [10]: 15.4 ± 0.0 nmol | 30 h skin conc [10]: 40.2 ± 0.0 µmol/g | Flux [10]: 1.0 ± 0.0 nmol/cm^2/h | Lag time [10]: 13.0 ± 0.0 h | 30 h cumulative amt [11]: 22.3 ± 0.0 nmol | 30 h skin conc [11]: 70.2 ± 0.0 µmol/g | Flux [11]: 1.6 ± 0.0 nmol/cm^2/h | Lag time [11]: 15.2 ± 0.0 h | Flux enhancement (Table 18, 90:8:2 PG:H2O:IPM donor solution, 40% aqueous PEG 400 receiver fluid): 0.19 | detected in the skin as (in donor solution): mono-substituted prodrug, ALL00148, and cannabidiol | flux compared to cannabidiol (in donor solution): did not increase the flux | lag time compared to cannabidiol (in donor solution): not decreased | permeated through the skin as (in donor solution): mono-substituted prodrug (ALL00148) and cannabidiol | total skin concentrations compared to cannabidiol (in donor solution): higher
